Laboratory results as given in US9427409B2, “Composition and method for aiding sleep” (priority 2014, dated 2016).
Several values for one entry are separate records, joined by “and”; a condition that tells them apart may be missing. Identical values can stand only once.

Experiment: In vitro pH-dependent release of each active agent from three-stage release capsules
Assay type: physicochemical
Conditions: individual capsules (Cap# 1-6)
Procedure: The capsules were designed to release the three drugs in a staged sequence controlled via pH-dependent coatings: uncoated diphenhydramine HCl for immediate release, coated zolpidem for release about 2 hours after administration, and coated lorazepam for release about 4 hours after administration.
Each capsule contained the following agents: (1) 50 mg of uncoated diphenhydramine HCl; (2) 5 mg of zolpidem tartrate in multiparticulate form coated with […]® L30 D-55, which dissolves at above pH 5.5 (with half-maximal drug release at pH 5.8 and maximal release at pH 6.3); and (3) 0.5 mg of lorazepam in multiparticulate form coated with […]® L/S 12.5 (1:1), which dissolves at above pH 6.5 (with half-maximal drug release at pH 7.2). The coatings were selected to achieve release of zolpidem tartrate with gastric emptying and release of lorazepam when the drug reaches the intestines.
Six capsules were individually tested in beakers for pH-dependent release of each active agent.

[1] = At 30 min in pH 2 (At time zero pH 2)
[2] = At 150 min in pH 6.4 (At 120 min changed to pH 6.4)
[3] = At 270 min in pH 7.2 (At 240 min changed to pH 7.2)

| SMILES | % Release [1] | % Release (At 30 min in pH 2 (At time zero pH 2), listed as lorazepam) | % Release [2] | % Release (At 150 min in pH 6.4 (At 120 min changed to pH 6.4), listed as lorazepam) | % Release [3] | % Release (At 270 min in pH 7.2 (At 240 min changed to pH 7.2), listed as lorazepam) | % Release (At 30 min in pH 2 (At time zero pH 2), listed as diphenhydramine HCl) |
| --- | --- | --- | --- | --- | --- | --- | --- |
| O=C1Nc2ccc(Cl)cc2C(c2ccccc2Cl)=NC1O (racemic) [Lora, (RS)-7-Chloro-5-(2-chlorophenyl)-3-hydroxy-1,3-dihydro-2H-1,4-benzodiazepin-2-one] | 0% | neither zolpidem tartrate nor lorazepam was released | 0% | but not lorazepam, was released | 81.3% and 77.2% and 80.1% and 83.2% and 70.2% and 72.1% | more than 70% | – |
| CN(C)CCOC(c1ccccc1)c1ccccc1 [Diph, 2-(diphenylmethoxy)-N,N-dimethylethanamine] | 93.4% and 89.8% and 98.2% and 98.7% and 96.8% and 97.3% | – | 98.0% and 100% (3×) and 99.9% (2×) | – | 99.9% and 100% (2×) and 99.8% and 99.1% and 99.2% | – | more than 89% |
